Experimental data taken from patent publication US20090298894A1, “AMINO ACID COMPOUNDS” (Asahi Kasei Pharma Corporation, priority 2008, published 2009).
pEC50: −log10 of the molar value. Counter-ions that a name gives are not always drawn.

Target: T1, human S1P1 (Homo sapiens, UniProt P21453)
T1 construct: expressed in transfected cells
Assay: 35S-GTPγS binding assay using a membrane prepared from CHO cells which stably express S1P1 receptor
Type: biochemical
Conditions: CHO cell membrane fraction stably expressing human S1P1, read-out: EC50 (concentration of agonist required to give 50% of its own maximum increase ratio), human S1P1
Protocol: ^35S-GTPγS Binding Assay Using a Membrane Prepared from CHO Cells Which Stably Express S1P1 Receptor
Functional activation of human S1P1 by the compounds was determined based on quantification of ^35S-GTPγS binding to G protein due to the receptor activation, by using a cell membrane fraction prepared from CHO cells in which human S1P1 are stably expressed. As for human S1P1, the above described human S1P1 was used. Membrane proteins as prepared and various concentrations of sphingosine-1-phosphate or the compounds diluted in a solvent such as DMSO were incubated in a solution comprising 20 mM Tris-Cl (pH 7.5), 100 mM NaCl, 10 mM MgCl2, […] (Upstate), 0.1% BSA (fatty acid free, Sigma) and 25 pM ^35S-GTPγS (specific activity 1250 Ci/mmol) in 96 well microtiter plates. Binding was performed by incubating them for 90 minutes at room temperature, and then terminated by harvesting the membrane proteins onto multiscreeen harvest FB plates (Millipore) using Millipore multiscreen separation system. After drying the harvest plates at least for 12 hours, 25 μl of MicroScint-O (Perkin Elmer) was added to each well and radioactivity was measured using a Top Counter.
Having the value measured for the well to which a solvent has been added as a control value, the agonist activity of the compounds was determined by comparing the increase in the well to which a test compound has been added to the control value, and therefore an increase ratio for each concentration of the compounds was obtained. EC50 values were culcurated as defined to be the concentration of agonist required to give 50% of its own maximum increase ratio.

T1 sequence (P21453 whole entry): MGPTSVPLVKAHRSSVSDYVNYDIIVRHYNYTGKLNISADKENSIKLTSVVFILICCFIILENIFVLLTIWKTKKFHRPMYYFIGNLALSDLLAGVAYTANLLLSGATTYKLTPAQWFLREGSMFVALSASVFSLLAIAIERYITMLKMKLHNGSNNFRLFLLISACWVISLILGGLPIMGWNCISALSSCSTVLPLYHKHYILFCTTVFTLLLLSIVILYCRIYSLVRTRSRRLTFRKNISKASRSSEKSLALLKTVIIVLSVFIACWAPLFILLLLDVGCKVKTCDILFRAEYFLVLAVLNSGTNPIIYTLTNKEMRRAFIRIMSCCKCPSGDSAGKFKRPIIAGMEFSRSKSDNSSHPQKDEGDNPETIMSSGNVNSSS

pEC50, > 8.00:
Cc1cc(-c2nc(-c3ccc4c(c3)CN([C@H]3C[C@H](C(=O)O)C3)C4)no2)ccc1-c1cscc1C [Example 88]
Cc1cc(-c2nc(-c3ccc4c(c3)CCC4N[C@H]3C[C@H](C(=O)O)C3)no2)ccc1-c1ccccc1Cl (stereo partly shown) [Example 58]
Cc1cc(-c2nc(-c3ccc4c(c3)CCC4N[C@H]3C[C@H](C(=O)O)C3)no2)ccc1-c1cc(F)cc(F)c1F (stereo partly shown) [Example 46]
Cc1cc(-c2nc(-c3ccc4c(c3)CN([C@H]3C[C@H](C(=O)O)C3)C4)no2)c(F)cc1-c1cccc(F)c1F [Example 93]
Cc1cc(-c2nc(-c3ccc4c(c3)CCC4N[C@H]3C[C@H](C(=O)O)C3)no2)ccc1-c1cccc(C(F)(F)F)c1C(F)(F)F (stereo partly shown) [Example 47]
Cc1cc(-c2nc(-c3ccc4c(c3)CCC4N[C@H]3C[C@H](C(=O)O)C3)no2)c(F)cc1-c1cccc(F)c1F (stereo partly shown) [Example 32]
Cc1cc(-c2nc(-c3ccc4c(c3)CCC4N[C@H]3C[C@H](C(=O)O)C3)no2)ccc1-c1c(F)ccc(C)c1Cl (stereo partly shown) [Example 43]
Cc1cc(-c2nc(-c3ccc4c(c3)CCC4N[C@H]3C[C@H](C(=O)O)C3)no2)cc(C)c1-c1ccccc1 (stereo partly shown) [Example 2]
Cc1cc(-c2nc(-c3ccc4c(c3)CCC4N[C@H]3C[C@H](C(=O)O)C3)no2)ccc1-c1c(F)cccc1F (stereo partly shown) [Example 42]
Cc1cc(-c2nc(-c3ccc4c(c3)CCC4N[C@H]3C[C@H](C(=O)O)C3)no2)ccc1-c1ccccc1C#N (stereo partly shown) [Example 59]
Cc1cc(-c2nc(-c3ccc4c(c3)CN([C@H]3C[C@H](C(=O)O)C3)C4)no2)ccc1-c1cccc(F)c1C(F)(F)F [Example 95]
CSc1ccccc1-c1ccc(-c2nc(-c3ccc4c(c3)CCC4N[C@H]3C[C@H](C(=O)O)C3)no2)cc1C (mixture of isomers) [Example 6, 1,3-Trans-3-(5-(5-(2-methyl-2′-methylthiobiphenyl-4-yl)-1,2,4-oxadiazol-3-yl)-2,3-dihydro-1H-inden-1-ylamino)cyclobutane carboxylic acid hydrochloric acid salt]
Cc1cc(-c2nc(-c3ccc4c(c3)CCC4N[C@H]3C[C@H](C(=O)O)C3)no2)c(F)cc1-c1cccc(F)c1 (stereo partly shown) [Example 23]
Cc1cc(-c2nc(-c3ccc4c(c3)CCC4N[C@H]3C[C@H](C(=O)O)C3)no2)ccc1-c1cccc(Cl)c1F (stereo partly shown) [Example 34]
CSc1ccccc1-c1ccc(-c2nc(-c3ccc4c(c3)CN([C@H]3C[C@H](C(=O)O)C3)C4)no2)cc1C [Example 10]
Cc1cc(-c2nc(-c3ccc4c(c3)CCC4N[C@H]3C[C@H](C(=O)O)C3)no2)ccc1-c1ccsc1 (stereo partly shown) [Example 3]
Cc1cc(-c2nc(-c3ccc4c(c3)CCC4N[C@H]3C[C@H](C(=O)O)C3)no2)ccc1-c1cccc(F)c1 (stereo partly shown) [Example 4]
Cc1cc(-c2nc(-c3ccc4c(c3)CN([C@H]3C[C@H](C(=O)O)C3)C4)no2)ccc1-c1ccccc1F [Example 84]
Cc1cc(-c2nc(-c3ccc4c(c3)CCC4N[C@H]3C[C@H](C(=O)O)C3)no2)c(F)cc1-c1ccsc1 (stereo partly shown) [Example 5]
Cc1cc(-c2nc(-c3cc(Cl)c4c(c3)CN([C@H]3C[C@H](C(=O)O)C3)C4)no2)ccc1-c1ccccc1 [Example 77]
Cc1cscc1-c1c(C)cc(-c2nc(-c3ccc4c(c3)CCC4N[C@H]3C[C@H](C(=O)O)C3)no2)cc1C (stereo partly shown) [Example 22]
Cc1cc(-c2nc(-c3ccc4c(c3)CCC4N[C@H]3C[C@H](C(=O)O)C3)no2)ccc1-c1cc(C(F)(F)F)ccc1F (stereo partly shown) [Example 36]
Cc1cc(-c2nc(-c3ccc4c(c3)CN([C@H]3C[C@H](C(=O)O)C3)C4)no2)ccc1-c1cccc(C(F)(F)F)c1F [Example 92]
Cc1cc(-c2nc(-c3ccc4c(c3)CCC4N[C@H]3C[C@H](C(=O)O)C3)no2)ccc1-c1c(F)ccc(F)c1F (stereo partly shown) [Example 45]
Cc1cc(-c2nc(-c3ccc4c(c3)CCC4N[C@H]3C[C@H](C(=O)O)C3)no2)ccc1-c1ccccc1OC(F)(F)F (stereo partly shown) [Example 17]
Cc1cc(-c2nc(-c3ccc4c(c3)CN([C@H]3C[C@H](C(=O)O)C3)C4)no2)ccc1-c1ccccc1C(F)(F)F [Example 85]
Cc1cc(-c2nc(-c3ccc4c(c3)CCC4N[C@H]3C[C@H](C(=O)O)C3)no2)ccc1-c1cccc(C)c1F (stereo partly shown) [Example 37]
Cc1cc(-c2nc(-c3ccc4c(c3)CN([C@H]3C[C@H](C(=O)O)C3)C4)no2)c(F)cc1-c1cc(F)cc(F)c1F [Example 102]
Cc1cc(-c2nc(-c3ccc4c(c3)CCC4N[C@H]3C[C@H](C(=O)O)C3)no2)ccc1-c1cccc(F)c1C#N (stereo partly shown) [Example 64]
O=C(O)[C@H]1C[C@H](N2Cc3ccc(-c4noc(-c5ccc(-c6ccccc6)c(Cl)c5)n4)cc3C2)C1 [Example 67]
COc1cccc(-c2ccc(-c3nc(-c4ccc5c(c4)CCC5N[C@H]4C[C@H](C(=O)O)C4)no3)cc2C)c1F (stereo partly shown) [Example 38]
Cc1cc(-c2nc(-c3ccc4c(c3)CCC4N[C@H]3C[C@H](C(=O)O)C3)no2)c(F)cc1-c1ccccc1C(F)(F)F (stereo partly shown) [Example 30]
Cc1cc(-c2nc(-c3ccc4c(c3)CN([C@H]3C[C@@H](C(=O)O)C3)C4)no2)ccc1-c1ccccc1 [Example 104]
Cc1cc(-c2nc(-c3ccc4c(c3)CCC4N[C@H]3C[C@H](C(=O)O)C3)no2)ccc1-c1cc(Cl)ccc1F (stereo partly shown) [Example 35]
Cc1cc(-c2nc(-c3ccc4c(c3)CCC4N[C@H]3C[C@H](C(=O)O)C3)no2)ccc1-c1cccc(Br)c1C(F)(F)F (stereo partly shown) [Example 51]
Cc1cc(-c2nc(-c3ccc4c(c3)CCC4N[C@H]3C[C@H](C(=O)O)C3)no2)ccc1-c1cscc1C (stereo partly shown) [Example 25]
Cc1cc(-c2nc(-c3ccc4c(c3)CCC4N[C@H]3C[C@H](C(=O)O)C3)no2)c(F)cc1-c1ccoc1 (stereo partly shown) [Example 13]
Cc1cc(-c2nc(-c3ccc4c(c3)CN([C@H]3C[C@H](C(=O)O)C3)C4)no2)ccc1-c1ccccc1Cl [Example 66]
O=C(O)[C@H]1C[C@H](N2Cc3ccc(-c4noc(-c5ccc(-c6ccccc6F)c(Cl)c5)n4)cc3C2)C1 [Example 68]
Cc1cc(-c2nc(-c3ccc4c(c3)CCC4N[C@H]3C[C@H](C(=O)O)C3)no2)ccc1-c1cccc(F)c1C(F)(F)F (stereo partly shown) [Example 39]
Cc1cc(-c2nc(-c3ccc4c(c3)CCC4NC3CC(C(=O)O)C3)no2)ccc1-c1cccc([N+](=O)[O-])c1C(F)(F)F (stereo not shown) [Example 49]
Cc1cc(-c2nc(-c3ccc4c(c3)CCC4N[C@H]3C[C@H](C(=O)O)C3)no2)ccc1-c1c(Cl)ccc(C)c1F (stereo partly shown) [Example 44]
Cc1cc(-c2nc(-c3ccc4c(c3)CCC4N[C@H]3C[C@H](C(=O)O)C3)no2)ccc1-c1cccc(F)c1F (stereo partly shown) [Example 28]
Cc1cc(-c2nc(-c3ccc4c(c3)CCC4N[C@H]3C[C@H](C(=O)O)C3)no2)c(F)cc1-c1cccc(C(F)(F)F)c1F (stereo partly shown) [Example 41]
Cc1cc(-c2nc(-c3ccc4c(c3)CCC4N[C@H]3C[C@H](C(=O)O)C3)no2)ccc1-c1cc(F)ccc1F (stereo partly shown) [Example 29]
Cc1cc(-c2nc(-c3ccc4c(c3)CCC4N[C@H]3C[C@H](C(=O)O)C3)no2)cc(C)c1-c1ccsc1 (stereo partly shown) [Example 16]
Cc1cc(-c2nc(-c3ccc4c(c3)CN([C@H]3C[C@H](C(=O)O)C3)C4)no2)c(F)cc1-c1ccccc1F [Example 89]
O=C(O)C1CC(NC2CCc3cc(-c4noc(-c5ccc(-c6ccccc6F)c(Cl)c5)n4)ccc32)C1 (stereo not drawn) [Example 55, 1,3-Trans-3-(5-(5-(2-chloro-2′-fluorobiphenyl-4-yl)-1,2,4-oxadiazol-3-yl)-2,3-dihydro-1H-inden-1-ylamino)cyclobutane carboxylic acid hydrochloric acid salt]
Cc1cc(-c2nc(-c3ccc4c(c3)CCC4N[C@H]3C[C@H](C(=O)O)C3)no2)ccc1-c1cccc(C(F)(F)F)c1F (stereo partly shown) [Example 31]
O=C(O)[C@H]1C[C@H](NC2CCc3cc(-c4noc(-c5ccc(-c6ccccc6)c(Cl)c5)n4)ccc32)C1 (stereo partly shown) [Example 62]
Cc1cc(-c2nc(-c3ccc4c(c3)CCC4N[C@H]3C[C@H](C(=O)O)C3)no2)ccc1-c1cc(F)ccc1C#N (stereo partly shown) [Example 65]
Cc1cc(-c2nc(-c3ccc4c(c3)CCC4N[C@H]3C[C@H](C(=O)O)C3)no2)cc(C)c1-c1ccccc1F (stereo partly shown) [Example 15]
Cc1cc(-c2nc(-c3ccc4c(c3)CCC4N[C@H]3C[C@H](C(=O)O)C3)no2)c(F)cc1-c1ccccc1 (stereo partly shown) [Example 12]
Cc1cc(-c2nc(-c3ccc4c(c3)CCC4N[C@H]3C[C@H](C(=O)O)C3)no2)c(F)cc1-c1ccccc1OC(F)(F)F (stereo partly shown) [Example 24]
Cc1cc(-c2nc(-c3ccc4c(c3)CCC4N[C@H]3C[C@H](C(=O)O)C3)no2)ccc1-c1ccccc1C(F)(F)F (stereo partly shown) [Example 21]
